Experimental data as given in BindingDB's records for doi:10.1016/j.bmcl.2008.12.075 (Methylgene, 2009).

Target: T1, Histone-arginine methyltransferase CARM1 (Mus musculus, UniProt Q9WVG6)
T1 sequence (Q9WVG6 whole entry): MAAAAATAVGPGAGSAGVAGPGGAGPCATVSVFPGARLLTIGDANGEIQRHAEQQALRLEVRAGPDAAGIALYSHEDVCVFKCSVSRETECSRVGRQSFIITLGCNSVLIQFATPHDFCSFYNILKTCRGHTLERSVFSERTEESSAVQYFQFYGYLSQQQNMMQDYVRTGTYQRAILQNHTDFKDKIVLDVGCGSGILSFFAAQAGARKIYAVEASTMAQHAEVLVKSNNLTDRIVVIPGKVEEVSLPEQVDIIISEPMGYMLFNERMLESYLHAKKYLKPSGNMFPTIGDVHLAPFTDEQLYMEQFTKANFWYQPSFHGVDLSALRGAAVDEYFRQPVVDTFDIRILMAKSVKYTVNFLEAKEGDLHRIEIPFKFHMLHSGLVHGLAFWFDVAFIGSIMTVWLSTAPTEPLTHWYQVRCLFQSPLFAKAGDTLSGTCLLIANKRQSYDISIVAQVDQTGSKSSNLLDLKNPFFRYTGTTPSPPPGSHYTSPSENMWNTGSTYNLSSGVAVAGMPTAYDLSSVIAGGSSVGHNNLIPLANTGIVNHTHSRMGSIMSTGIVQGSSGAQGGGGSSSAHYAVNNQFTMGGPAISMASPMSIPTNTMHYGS
Experiment: Inhibition of CARM-1 Enzymatic Activity
Details: pH 9; 22 °C
Method: Histone H3 is used as the substrate for CARM-1 enzyme, and the methylation is monitored using tritiated S-Adenosyl-Methionine (SAM) as a methyl donor. The enzyme mixture containing test compound is left to pre-incubate for 10 minutes, followed by the addition of Histone H3/[3H] SAM mixture. After incubation, the mixture is spotted onto P30 Filtermat paper. The incorporated radioactivity is read using a Wallac Microbeta counter. The data is analyzed to generate IC50 values.

| IC50 [µM] | Structure (SMILES) |
| --- | --- |
| 0.08 | C[C@H](N)C(=O)NCc1cccc(-n2nc(C(F)(F)F)cc2C(=O)NCc2ccccc2)c1 |
| 3.35 | C[C@H](N)C(=O)NCc1cc(-n2nc(C(F)(F)F)cc2C(=O)NCc2ccccn2)cs1 [1-(5-{[(2S)-2-aminopropanamido]methyl}thiophen-3-yl)-N-(pyridin-2-ylmethyl)-3-(trifluoromethyl)-1H-pyrazole-5-carboxamide] |
| > 10 | COc1ccccc1CNC(=O)c1cc(C(F)(F)F)nn1-c1cccc2c1CN(C(=O)[C@H](C)N)C2 [1-{2-[(2S)-2-aminopropanoyl]-2,3-dihydro-1H-isoindol-4-yl}-N-[(2-methoxyphenyl)methyl]-3-(trifluoromethyl)-1H-pyrazole-5-carboxamide] |
